Measured values taken from patent publication US20260297042A1, “BIARYLAMIDE DERIVATIVES AND THEIR USE AS PKMYT1 INHIBITORS” (CANCER RESEARCH TECHNOLOGY LIMITED, priority 2023, published 2026).
Where a name gives a salt, the structure may show the parent alone.

Key:
WEE1 = molecular target: T1, WEE1 (Homo sapiens, UniProt P30291); test: Selectivity versus WEE1 assay (ADP-Glo enzymatic assay); format: biochemical; settings: for IC50: ADP-Glo; for PKMYT1 vs. WEE1 selectivity: fold difference in selectivity for PKMYT1 over WEE1
T1 construct: purchased Thermo Fisher PR7373A
T1 sequence (P30291 whole entry): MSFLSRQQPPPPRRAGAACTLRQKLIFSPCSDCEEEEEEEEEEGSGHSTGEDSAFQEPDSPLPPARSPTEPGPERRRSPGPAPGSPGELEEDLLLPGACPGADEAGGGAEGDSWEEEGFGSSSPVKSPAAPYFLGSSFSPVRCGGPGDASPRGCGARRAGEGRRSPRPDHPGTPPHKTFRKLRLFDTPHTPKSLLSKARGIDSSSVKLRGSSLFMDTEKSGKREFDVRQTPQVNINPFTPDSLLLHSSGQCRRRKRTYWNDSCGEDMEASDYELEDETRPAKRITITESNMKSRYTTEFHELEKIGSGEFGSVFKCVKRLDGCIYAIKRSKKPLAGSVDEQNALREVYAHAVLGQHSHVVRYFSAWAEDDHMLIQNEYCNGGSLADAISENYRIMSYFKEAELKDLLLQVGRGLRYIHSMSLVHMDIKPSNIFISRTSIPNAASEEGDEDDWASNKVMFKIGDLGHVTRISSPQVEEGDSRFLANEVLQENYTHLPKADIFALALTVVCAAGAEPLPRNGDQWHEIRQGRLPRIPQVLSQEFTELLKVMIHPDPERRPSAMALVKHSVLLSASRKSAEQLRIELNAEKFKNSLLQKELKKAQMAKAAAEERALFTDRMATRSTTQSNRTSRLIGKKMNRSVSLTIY
Method in brief: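 Same format as the PKMYT1 assay: WEE1 at 15 nM final with 30 µM ATP, 60 min at 26° C, ADP-Glo luminescence detection, IC50 by dose-response fitting.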

Human PKMYT1 = molecular target: T2, Human PKMYT1 (Homo sapiens, UniProt Q99640); test: PKMYT1 biochemical ADP-Glo enzymatic assay; settings: ADP-Glo
T2 construct: Human PKMYT1 75-362 was cloned as a TEV cleavable 6xHis fusion; 6xHis (TEV cleavable) (cleaved yes); made in house; host or cells: bacterial cells
T2 sequence (Q99640 75-362): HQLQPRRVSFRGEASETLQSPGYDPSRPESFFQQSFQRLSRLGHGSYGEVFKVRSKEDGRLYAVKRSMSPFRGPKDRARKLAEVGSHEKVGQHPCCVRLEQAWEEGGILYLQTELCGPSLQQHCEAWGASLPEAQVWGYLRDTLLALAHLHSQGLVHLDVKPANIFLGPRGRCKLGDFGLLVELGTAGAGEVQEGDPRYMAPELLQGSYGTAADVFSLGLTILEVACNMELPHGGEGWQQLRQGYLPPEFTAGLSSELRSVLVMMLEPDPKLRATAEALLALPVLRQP
Method in brief: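 Measures inhibition of PKMYT1 autonomous ATP hydrolysis: bacterially expressed human enzyme (75-362, tag cleaved) at 15 nM with 500 µM ATP for 60 min at 26 °C, then ADP-Glo Max detection. IC50s accepted only when replicates agreed within 3-fold and curve r2 exceeded 0.9.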

[1] = PKMYT1 kinase domain 15 nM, banded values
[2] = 15 nM WEE1, 60 minutes at 26° C., banded
[3] = banded, ">N" = at least in this band but could be higher
[4] = 15 nM PKMYT1 kinase domain, 500 µM ATP, 60 minutes at 26° C., banded

IC50 (WEE1; WEE1 15 nM, banded values)	PKMYT1 vs. WEE1 selectivity (WEE1; banded)	IC50 (Human PKMYT1; [1])	IC50 (WEE1; [2])	PKMYT1 vs. WEE1 selectivity (WEE1; [3])	IC50 (Human PKMYT1; [4])	Compound
> 11 µM	X (100-<1000 fold)	0.05 to 1 µM				Cc1ccccc1Nc1ncc(C(=O)Nc2c(C)ccc(O)c2C)s1 [BAA-483, N-(3-hydroxy-2,6-dimethylphenyl)-2-(o-tolylamino)thiazole-5-carboxamide]
			> 11 µM	Y (1000-5000 fold)	< 0.05 µM	Cc1ccc(O)c(C)c1NC(=O)c1cnc(Nc2ccn(CC(=O)NC3CCC3)n2)s1 [BAA-191]
			1 to 11 µM	W (10-<100 fold)	0.05 to 1 µM	CCOC(=O)CCCn1ccc(Nc2ncc(C(=O)Nc3c(C)ccc(O)c3C)s2)n1 [BAA-022]
			> 11 µM	X (100-<1000 fold)	0.05 to 1 µM	Cc1ccc(O)c(C)c1NC(=O)c1cnc(Nc2ccn(CC(=O)NC3CCN(C)CC3)n2)s1 [BAA-151]
			> 11 µM	W (10-<100 fold)	1 to 11 µM	Cc1ccc(O)c(C)c1NC(=O)c1cnc(N[C@H](C)c2ccccc2)s1 [BAA-354, (R)-N-(3-hydroxy-2,6-dimethylphenyl)-2-((1-phenylethyl)amino) thiazole-5-carboxamide]
			> 11 µM	X (100-<1000 fold)	0.05 to 1 µM	Cn1ccc(Nc2ncc(C(=O)Nc3c(F)ccc(O)c3F)s2)n1 [BAA-249, N-(2,6-difluoro-3-hydroxyphenyl)-2-((1-methyl-1H-pyrazol-3-yl)amino)thiazole-5-carboxamide]
			> 11 µM	>X (100-<1000 fold)	0.05 to 1 µM	Cc1ccc(O)c(C)c1NC(=O)c1cnc(Nc2ccn([C@@H]3CCN(C(=O)NC4CC4)C3)n2)s1 [BAA-110, 2-[[1-[(3R)-1-(Cyclopropylcarbamoyl)pyrrolidin-3-yl]pyrazol-3-yl]amino]-N-(3-hydroxy-2.6-dimethyl-phenyl)thiazole-5-carboxamide]
			1 to 11 µM	X (100-<1000 fold)	< 0.05 µM	CCN(C(=O)C(C)(C)C)c1ccc(C)c(Nc2ncc(C(=O)Nc3c(C)ccc(O)c3C)s2)n1 [BAA-234, 2-((6-(N-ethylpivalamido)-3-methylpyridin-2-yl)amino)-N-(3-hydroxy-2,6-dimethylphenyl) thiazole-5-carboxamide]
			> 11 µM	Y (1000-5000 fold)	< 0.05 µM	Cc1cn(CC(=O)O)nc1Nc1ncc(C(=O)Nc2c(C)ccc(O)c2C)s1 [BAA-125, 2-[3-[[5-[(3-hydroxy-2,6-dimethyl-phenyl)carbamoyl]thiazol-2-yl]amino]-4-methyl-pyrazol-1-yl]acetic acid]
			1 to 11 µM	W (10-<100 fold)	< 0.05 µM	Cc1ccc(O)c(C)c1NC(=O)c1cnc(Nc2ccn(CCO)n2)s1 [BAA-011]
			> 11 µM	W (10-<100 fold)	1 to 11 µM	Cc1ccc(O)c(C)c1NC(=O)c1cnc(Nc2ccn([C@H]3CCCNC3)n2)s1 [BAA-054, N-(3-hydroxy-2,6-dimethyl-phenyl)-2-[1-[(3S)-3-piperidyl]pyrazol-3-yllamino]thiazole-5-carboxamide (hydrochloride)]
1 to 11 µM	W (10-<100 fold)	0.05 to 1 µM				CCN(CC)C(=O)c1cc(Nc2ncc(C(=O)Nc3c(C)ccc(O)c3C)s2)nn1C [BAA-545, 2-((5-(diethylcarbamoyl)-1-methyl-1H-pyrazol-3-yl)amino)-N-(3-hydroxy-2,6-dimethylphenyl)thiazole-5-carboxamide]
			> 11 µM	>X (100-<1000 fold)	0.05 to 1 µM	Cc1ccc(O)c(C)c1NC(=O)c1cnc(Nc2ccn([C@@H]3CCOC3)n2)s1 [BAA-037]
> 11 µM	X (100-<1000 fold)	0.05 to 1 µM				Cc1ccc(O)c(C)c1NC(=O)c1cnc(Nc2nccn2C)s1 [BAA-552, N-(3-hydroxy-2,6-dimethylphenyl)-2-((1-methyl-1H-imidazol-2-yl)amino)thiazole-5-carboxamide]
			> 11 µM	>X (100-<1000 fold)	0.05 to 1 µM	Cc1ccc(O)c(C)c1NC(=O)c1cnc(NCCC(=O)N2CCOCC2)s1 [BAA-078, N-(3-hydroxy-2,6-dimethyl-phenyl)-2-[(3-morpholino-3-oxo-propyl)amino]thiazole-5-carboxamide]
			> 11 µM	W (10-<100 fold)	1 to 11 µM	Cc1ccc(O)c(C)c1NC(=O)c1cnc(NCc2ccccc2C2CC2)s1 [BAA-356, 2-((2-cyclopropylbenzyl)amino)-N-(3-hydroxy-2,6-dimethylphenyl)thiazole-5-carboxamide]
			> 11 µM	X (100-<1000 fold)	0.05 to 1 µM	Cc1ccc(O)c(C)c1NC(=O)c1cnc(Nc2nn(C)cc2-c2ccccc2)s1 [BAA-373, N-(3-hydroxy-2,6-dimethylphenyl)-2-((1-methyl-4-phenyl-1H-pyrazol-3-yl)amino)thiazole-5-carboxamide]
1 to 11 µM	W (10-<100 fold)	0.05 to 1 µM				Cc1ccc(O)c(C)c1NC(=O)c1cnc(Nc2cc(C)n(C3CCS(=O)(=O)C3)n2)s1 (stereo not drawn) [BAA-564, 2-[[1-(1,1-Dioxothiolan-3-yl)-5-methyl-pyrazol-3-yl]amino]-N-(3-hydroxy-2,6-dimethyl-phenyl)thiazole-5-carboxamide]
			> 11 µM	X (100-<1000 fold)	< 0.05 µM	CCNC(=O)Cn1nc(Nc2ncc(C(=O)Nc3c(C)ccc(O)c3C)s2)cc1C [BAA-202, 2-[[1-[2-(ethylamino)-2-oxo-ethyl]-5-methyl-pyrazol-3-yl]amino]-N-(3-hydroxy-2,6-dimethyl-phenyl)thiazole-5-carboxamide]
			> 11 µM	>X (100-<1000 fold)	0.05 to 1 µM	Cc1ccc(O)c(C)c1NC(=O)c1cnc(Nc2ccn([C@@H]3CCN(C(=O)C4CCOCC4)C3)n2)s1 [BAA-082]
			1 to 11 µM	X (100-<1000 fold)	< 0.05 µM	Cc1ccc(O)c(C)c1NC(=O)c1cnc(Nc2ccn(CC(N)=O)n2)s1 [BAA-133, 2-[[1-(2-amino-2-oxo-ethyl)pyrazol-3-yl]amino]-N-(3-hydroxy-2,6-dimethyl-phenyl) thiazole-5-carboxamide]
			> 11 µM	>X (100-<1000 fold)	0.05 to 1 µM	Cc1ccc(O)c(C)c1NC(=O)c1cnc(Nc2nc3ccccc3o2)s1 [BAA-044, 2-(1,3-benzoxazol-2-ylamino)-N-(3-hydroxy-2,6-dimethyl-phenyl)thiazole-5-carboxamide]
			> 11 µM	X (100-<1000 fold)	0.05 to 1 µM	COc1ccccc1CNc1ncc(C(=O)Nc2c(C)ccc(O)c2C)s1 [BAA-355, N-(3-hydroxy-2,6-dimethylphenyl)-2-((2-methoxybenzyl)amino) thiazole-5-carboxamide]
			> 11 µM	Y (1000-5000 fold)	< 0.05 µM	Cc1ccc(O)c(C)c1NC(=O)c1cnc(Nc2ccn(CC(=O)N3CC4CCC(C3)N4C(=O)OC(C)(C)C)n2)s1 [BAA-180]
			> 11 µM	>X (100-<1000 fold)	0.05 to 1 µM	Cc1ccc(O)c(C)c1NC(=O)c1cnc(NCC2CCN(C(=O)OC(C)(C)C)CC2)s1 [BAA-066]
> 11 µM	X (100-<1000 fold)	0.05 to 1 µM				Cc1ccc(O)c(C)c1NC(=O)c1cnc(Nc2nccc3ccncc23)s1 [BAA-602, 2-((2,7-naphthyridin-1-yl)amino)-N-(3-hydroxy-2,6-dimethylphenyl)thiazole-5-carboxamide]
			> 11 µM	X (100-<1000 fold)	< 0.05 µM	Cc1ccc(O)c(C)c1NC(=O)c1cnc(Nc2ccn(CC(=O)N3CCNCC3)n2)s1 [BAA-222, N-(3-hydroxy-2,6-dimethylphenyl)-2-((1-(2-oxo-2-(piperazin-1-yl)ethyl)-1H-pyrazol-3-yl)amino)thiazole-5-carboxamide]
			> 11 µM	X (100-<1000 fold)	0.05 to 1 µM	Cc1ccc(O)c(C)c1NC(=O)c1cnc(Nc2ccc(NC(=O)c3c(F)cc(F)cc3F)cn2)s1 [BAA-302, N-(3-hydroxy-2,6-dimethylphenyl)-2-((5-(2,4,6-trifluorobenzamido)pyridin-2-yl)amino)thiazole-5-carboxamide]
> 11 µM	X (100-<1000 fold)	0.05 to 1 µM				Cc1ccc(O)c(C)c1NC(=O)c1cnc(Nc2nccc3ncccc23)s1 [BAA-603, 2-((1,6-naphthyridin-5-yl)amino)-N-(3-hydroxy-2,6-dimethylphenyl)thiazole-5-carboxamide]
